Test results published in ChEMBL document CHEMBL1201862, “PubChem BioAssay data set” (2004).
Activity calls are given as the source filed them.

Experiments:
Vero [1] = assay: West Nile virus CPE inhibition, SAR follow-up, cell-based, synthesized analogs (AID 2238); type: functional; settings: Chlorocebus sabaeus
Vero [2] = assay: Vero E6 cell cytotoxicity, SAR follow-up, cytotoxicity control for West Nile virus antiviral project, synthesized analogs (AID 2244); type: functional; settings: Chlorocebus sabaeus
Vero [3] = assay: cytotoxicity of synthesized analogs in Vero cells, SAR follow-up, cytotoxicity control for West Nile virus antiviral project, cell-based, set II (AID 2402); type: functional; settings: Chlorocebus sabaeus
Vero [4] = assay: cytotoxicity of synthesized analogs in Vero 76, SAR follow-up, cytotoxicity control for West Nile virus antiviral project, Vero 76 cells (AID 2414); type: functional; settings: Chlorocebus sabaeus
[5] = target: T1, Polyadenylate-binding protein 1 (Homo sapiens, UniProt P11940); assay: PABP inhibition in translation initiation, SAR follow-up (AID 435018); type: functional
[6] = target: T2, Eukaryotic translation initiation factor 4H (Homo sapiens, UniProt Q15056); assay: eIF4H inhibition in translation initiation, SAR follow-up (AID 435011); type: functional
[7] = target: T2, Eukaryotic translation initiation factor 4H; assay: human eIF4H binding inhibitors, primary screen, translation initiation inhibitor project, biochemical, uHTS, fluorescence polarization (AID 2012)
[8] = target: T1, Polyadenylate-binding protein 1; assay: PABP poly(A) RNA binding inhibitors, primary screen, biochemical, fluorescence polarization, uHTS (AID 2014)
[9] = target: T3, Short transient receptor potential channel 4 (Mus musculus, UniProt Q9QUQ5); assay: TRPC4 positive allosteric modulators, dose response, cell-based, HEK293 TRPC4/mu-opioid, Fluo-4 calcium, EC20 DAMGO (AID 434941); type: functional
T3 sequence (Q9QUQ5 whole entry): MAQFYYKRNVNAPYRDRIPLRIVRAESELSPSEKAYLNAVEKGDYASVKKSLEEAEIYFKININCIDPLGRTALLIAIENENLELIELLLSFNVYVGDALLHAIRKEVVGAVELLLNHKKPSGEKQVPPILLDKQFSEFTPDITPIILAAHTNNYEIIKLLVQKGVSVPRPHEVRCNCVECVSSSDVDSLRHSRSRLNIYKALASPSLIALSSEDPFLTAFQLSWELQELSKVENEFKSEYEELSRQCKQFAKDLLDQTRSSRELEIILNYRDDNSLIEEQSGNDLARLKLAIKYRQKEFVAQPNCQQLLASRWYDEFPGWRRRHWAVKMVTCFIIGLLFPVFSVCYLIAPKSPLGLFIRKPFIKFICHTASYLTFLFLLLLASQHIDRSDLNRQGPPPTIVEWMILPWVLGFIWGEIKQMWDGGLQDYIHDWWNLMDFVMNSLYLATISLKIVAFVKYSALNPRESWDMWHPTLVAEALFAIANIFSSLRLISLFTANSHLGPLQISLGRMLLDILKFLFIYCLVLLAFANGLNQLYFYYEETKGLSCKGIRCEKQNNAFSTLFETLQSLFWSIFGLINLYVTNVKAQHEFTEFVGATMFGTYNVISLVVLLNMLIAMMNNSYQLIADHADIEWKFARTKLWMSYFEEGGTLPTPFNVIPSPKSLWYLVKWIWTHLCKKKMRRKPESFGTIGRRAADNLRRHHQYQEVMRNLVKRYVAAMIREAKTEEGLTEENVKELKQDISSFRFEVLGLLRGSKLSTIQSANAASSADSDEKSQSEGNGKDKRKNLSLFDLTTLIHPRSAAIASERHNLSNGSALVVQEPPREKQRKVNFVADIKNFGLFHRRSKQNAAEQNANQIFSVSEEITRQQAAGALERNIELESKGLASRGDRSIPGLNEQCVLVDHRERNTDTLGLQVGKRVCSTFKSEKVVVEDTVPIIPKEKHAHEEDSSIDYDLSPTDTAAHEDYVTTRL

[10] = target: T4, Replicative DNA helicase DnaB (Mycobacterium tuberculosis, UniProt P9WMR3); assay: DnaB intein splicing inhibitors, dose response, biochemical, cell-free fluorescence (AID 449749); type: functional
T4 sequence (P9WMR3 whole entry): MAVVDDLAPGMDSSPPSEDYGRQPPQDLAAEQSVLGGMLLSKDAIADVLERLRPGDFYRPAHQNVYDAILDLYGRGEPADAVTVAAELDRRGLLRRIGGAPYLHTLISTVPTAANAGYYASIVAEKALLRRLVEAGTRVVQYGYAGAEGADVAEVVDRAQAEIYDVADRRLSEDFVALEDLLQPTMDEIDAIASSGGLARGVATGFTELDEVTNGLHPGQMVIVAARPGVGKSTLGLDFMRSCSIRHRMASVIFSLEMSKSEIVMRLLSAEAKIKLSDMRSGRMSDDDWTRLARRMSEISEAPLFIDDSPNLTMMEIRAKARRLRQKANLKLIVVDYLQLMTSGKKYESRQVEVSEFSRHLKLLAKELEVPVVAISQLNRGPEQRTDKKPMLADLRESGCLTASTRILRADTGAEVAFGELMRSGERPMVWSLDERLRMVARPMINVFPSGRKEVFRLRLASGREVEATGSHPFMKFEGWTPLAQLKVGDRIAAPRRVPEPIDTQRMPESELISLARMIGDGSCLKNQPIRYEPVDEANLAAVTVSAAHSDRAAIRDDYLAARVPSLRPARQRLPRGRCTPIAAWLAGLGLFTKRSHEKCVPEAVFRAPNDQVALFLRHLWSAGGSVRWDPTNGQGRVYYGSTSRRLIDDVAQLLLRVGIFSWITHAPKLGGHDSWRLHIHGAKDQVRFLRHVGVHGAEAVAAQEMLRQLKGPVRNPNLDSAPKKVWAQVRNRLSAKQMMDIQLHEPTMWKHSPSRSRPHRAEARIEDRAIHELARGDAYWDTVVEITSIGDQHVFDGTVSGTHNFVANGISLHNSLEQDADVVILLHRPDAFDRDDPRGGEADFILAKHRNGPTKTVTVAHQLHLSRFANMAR

[11] = target: NACHT, LRR and PYD domains-containing protein 1 (Homo sapiens, UniProt Q9C000); assay: NALP1 inhibitors in yeast, dose response, luminescent (AID 488860); type: functional
CHO = assay: cytotoxicity in TLR9-MyD88 CHO cells, dose response, cytotoxicity control for TLR9-MyD88 binding inhibitor project, cell-based, luminescence (AID 588339); type: functional, hamster; settings: Cricetulus griseus;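 note: CHO cells stably coexpressing TLR9 and MyD88 fusions from primary screen; compound exposure lasted 48 hours before viability readout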
Saccharomyces cerevisiae = assay: NALP1 inhibitor project selectivity study, Caspase-1/ASC signal blockade IC50 in S. cerevisiae (AID 488863); type: functional, organism-based
HEK293 [12] = assay: cells; settings: Homo sapiens
Beta Lactamase = Beta Lactamase (Pseudomonas aeruginosa, UniProt Q932Y6); assay: beta-lactamase reporter inhibitor potency, dose response, artefact control for TLR9-MyD88 binding inhibitor project, BLA reporter cells, FRET fluorescence (AID 588341); type: cell-based;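 note: cell based assay in CHO-K1 cells stably expressing beta-lactamase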
[13] = target: T5, Heat shock factor protein 1 (Mus musculus, UniProt P38532); assay: inhibition of MG132-induced HSE-luciferase signal, confirmation, cell-based, NIH3T3, luminescence, dose retest (AID 2382); type: functional;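 note: NIH3T3 fibroblasts with HSF1-driven luciferase reporter stressed by proteasome inhibitor MG132; luminescence from HSF1-driven luciferase expression after 8 hours of MG132 stress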
T5 sequence (P38532 whole entry): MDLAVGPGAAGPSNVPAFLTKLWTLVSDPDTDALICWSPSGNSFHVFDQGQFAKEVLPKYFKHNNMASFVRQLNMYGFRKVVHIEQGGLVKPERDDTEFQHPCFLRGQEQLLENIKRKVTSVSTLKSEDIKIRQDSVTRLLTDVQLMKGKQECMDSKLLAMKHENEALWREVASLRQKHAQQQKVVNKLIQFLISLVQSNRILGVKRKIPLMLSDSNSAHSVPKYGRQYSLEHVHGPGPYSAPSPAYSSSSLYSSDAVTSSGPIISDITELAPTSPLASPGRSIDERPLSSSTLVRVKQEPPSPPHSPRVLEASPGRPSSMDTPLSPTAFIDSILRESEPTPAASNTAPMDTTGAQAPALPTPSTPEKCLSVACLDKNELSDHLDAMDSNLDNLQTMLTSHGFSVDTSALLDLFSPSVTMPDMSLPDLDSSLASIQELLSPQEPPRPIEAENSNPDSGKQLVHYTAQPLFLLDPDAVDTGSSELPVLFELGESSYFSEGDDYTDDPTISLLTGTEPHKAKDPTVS

Protein RecA = target: T6, Protein RecA (Mycobacterium tuberculosis, UniProt P9WHJ3); assay: Fluorescence Cell-Free Homogeneous Dose Retest to Identify Inhibitors of RecA-Intein Splicing Activity. [Related pubchem assays (depositor defined):AID2097, AID2223, AID489010, AID492950]; type: functional
T6 sequence (P9WHJ3 whole entry): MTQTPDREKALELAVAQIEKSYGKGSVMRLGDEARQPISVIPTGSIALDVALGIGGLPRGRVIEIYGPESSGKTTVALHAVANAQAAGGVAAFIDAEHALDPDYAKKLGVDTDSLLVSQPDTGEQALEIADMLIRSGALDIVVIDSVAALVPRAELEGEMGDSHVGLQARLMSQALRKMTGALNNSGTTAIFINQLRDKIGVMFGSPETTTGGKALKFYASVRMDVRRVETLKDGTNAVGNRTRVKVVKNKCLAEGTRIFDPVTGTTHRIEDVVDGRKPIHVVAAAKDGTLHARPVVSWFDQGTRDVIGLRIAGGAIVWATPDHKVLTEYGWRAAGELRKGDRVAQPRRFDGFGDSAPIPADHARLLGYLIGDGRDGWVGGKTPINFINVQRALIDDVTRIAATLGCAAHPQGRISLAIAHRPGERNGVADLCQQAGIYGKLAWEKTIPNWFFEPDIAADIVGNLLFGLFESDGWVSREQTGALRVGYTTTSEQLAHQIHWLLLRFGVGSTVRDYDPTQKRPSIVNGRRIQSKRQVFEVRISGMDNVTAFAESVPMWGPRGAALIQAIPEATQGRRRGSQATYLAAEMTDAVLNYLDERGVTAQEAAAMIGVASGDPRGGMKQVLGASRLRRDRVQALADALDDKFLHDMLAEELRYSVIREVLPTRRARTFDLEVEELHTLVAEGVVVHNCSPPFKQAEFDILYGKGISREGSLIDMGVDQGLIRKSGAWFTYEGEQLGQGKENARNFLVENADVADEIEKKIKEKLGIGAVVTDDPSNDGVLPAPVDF

HEK293 [14] = assay: cells; settings: Homo sapiens; remark: listed apart in the source
Beta-galactosidase = Beta-galactosidase (Escherichia coli, UniProt Q8VNN2); assay: beta-galactosidase enzyme inhibitors and activators, dose response, artefact control for CCR6 antagonist project, biochemical, E. coli enzyme, set 3 (AID 504712); type: functional
[15] = target: G-protein coupled receptor 35 (Homo sapiens, UniProt Q9HC97); assay: GPR35 antagonists blocking zaprinast-driven arrestin recruitment, primary screen, imaging, U2OS, beta-arrestin-GFP, zaprinast agonist (AID 2058); type: functional;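 note: antagonist potency meaning inhibition of agonist-induced arrestin redistribution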
[16] = cytotoxicity in BJeH fibroblasts, dose response, counter-screen for Ras selective lethality project, BJeH cells, dry powder (AID 493054); type: functional, cell-based
[17] = viability loss in HRASV12 DRD fibroblasts, dose response, cell-based, DRD BJ fibroblasts, dry powder (AID 493049); type: functional
[18] = cytotoxicity in BJeHLT fibroblasts, dose response, counter-screen for Ras selective lethality project, BJeHLT cells, dry powder (AID 493052); type: functional, cell-based; settings: Homo sapiens
[19] = viability loss in BJeLR (HRASV12) cells, primary screen, Ras selective lethality project, cell-based, Alamar Blue, dry powder (AID 493045); type: functional

T1 sequence (P11940 whole entry): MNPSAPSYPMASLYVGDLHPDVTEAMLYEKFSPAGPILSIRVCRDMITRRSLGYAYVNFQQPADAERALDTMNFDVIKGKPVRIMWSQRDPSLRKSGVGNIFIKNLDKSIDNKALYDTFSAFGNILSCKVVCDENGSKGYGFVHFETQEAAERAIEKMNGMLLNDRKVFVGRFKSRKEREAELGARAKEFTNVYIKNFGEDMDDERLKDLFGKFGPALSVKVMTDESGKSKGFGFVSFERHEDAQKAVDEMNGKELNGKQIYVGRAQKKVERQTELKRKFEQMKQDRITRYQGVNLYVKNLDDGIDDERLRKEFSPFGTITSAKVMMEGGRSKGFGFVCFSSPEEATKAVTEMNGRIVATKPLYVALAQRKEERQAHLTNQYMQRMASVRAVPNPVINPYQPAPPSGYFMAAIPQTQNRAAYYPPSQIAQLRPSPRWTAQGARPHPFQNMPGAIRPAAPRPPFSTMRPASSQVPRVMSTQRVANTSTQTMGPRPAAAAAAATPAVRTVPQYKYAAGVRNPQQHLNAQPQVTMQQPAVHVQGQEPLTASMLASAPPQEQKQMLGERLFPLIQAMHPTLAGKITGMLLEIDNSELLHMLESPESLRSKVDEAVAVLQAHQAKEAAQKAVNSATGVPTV
Beta-galactosidase, sequence (Q8VNN2 whole entry): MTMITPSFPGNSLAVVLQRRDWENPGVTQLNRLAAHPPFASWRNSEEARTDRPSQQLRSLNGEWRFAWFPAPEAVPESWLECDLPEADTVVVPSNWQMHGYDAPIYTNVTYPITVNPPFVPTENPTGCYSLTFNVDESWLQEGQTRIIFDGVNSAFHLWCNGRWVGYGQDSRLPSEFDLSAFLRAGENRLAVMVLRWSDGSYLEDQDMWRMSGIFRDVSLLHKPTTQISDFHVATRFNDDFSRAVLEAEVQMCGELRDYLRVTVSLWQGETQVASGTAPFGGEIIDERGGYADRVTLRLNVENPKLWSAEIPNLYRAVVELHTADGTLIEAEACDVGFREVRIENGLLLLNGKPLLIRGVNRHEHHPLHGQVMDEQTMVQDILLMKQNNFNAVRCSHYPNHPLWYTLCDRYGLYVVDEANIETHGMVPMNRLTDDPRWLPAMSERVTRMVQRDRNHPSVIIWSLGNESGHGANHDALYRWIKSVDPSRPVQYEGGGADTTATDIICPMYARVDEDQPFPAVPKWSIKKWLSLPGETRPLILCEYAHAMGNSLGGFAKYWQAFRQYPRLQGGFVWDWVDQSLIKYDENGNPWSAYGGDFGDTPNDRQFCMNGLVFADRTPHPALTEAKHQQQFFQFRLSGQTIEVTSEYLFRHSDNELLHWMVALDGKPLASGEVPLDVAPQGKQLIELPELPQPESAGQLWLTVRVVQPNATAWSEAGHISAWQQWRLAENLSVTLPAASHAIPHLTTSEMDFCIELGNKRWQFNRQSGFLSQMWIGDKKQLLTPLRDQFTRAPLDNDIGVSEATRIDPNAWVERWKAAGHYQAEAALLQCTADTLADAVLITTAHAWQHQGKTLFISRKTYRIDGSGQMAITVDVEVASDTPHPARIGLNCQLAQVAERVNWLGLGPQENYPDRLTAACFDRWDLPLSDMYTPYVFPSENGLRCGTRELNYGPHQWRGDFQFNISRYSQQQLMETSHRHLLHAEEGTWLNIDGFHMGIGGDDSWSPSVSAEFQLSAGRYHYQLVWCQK
NACHT, LRR and PYD domains-containing protein 1, sequence (Q9C000 1-1212 limits assumed): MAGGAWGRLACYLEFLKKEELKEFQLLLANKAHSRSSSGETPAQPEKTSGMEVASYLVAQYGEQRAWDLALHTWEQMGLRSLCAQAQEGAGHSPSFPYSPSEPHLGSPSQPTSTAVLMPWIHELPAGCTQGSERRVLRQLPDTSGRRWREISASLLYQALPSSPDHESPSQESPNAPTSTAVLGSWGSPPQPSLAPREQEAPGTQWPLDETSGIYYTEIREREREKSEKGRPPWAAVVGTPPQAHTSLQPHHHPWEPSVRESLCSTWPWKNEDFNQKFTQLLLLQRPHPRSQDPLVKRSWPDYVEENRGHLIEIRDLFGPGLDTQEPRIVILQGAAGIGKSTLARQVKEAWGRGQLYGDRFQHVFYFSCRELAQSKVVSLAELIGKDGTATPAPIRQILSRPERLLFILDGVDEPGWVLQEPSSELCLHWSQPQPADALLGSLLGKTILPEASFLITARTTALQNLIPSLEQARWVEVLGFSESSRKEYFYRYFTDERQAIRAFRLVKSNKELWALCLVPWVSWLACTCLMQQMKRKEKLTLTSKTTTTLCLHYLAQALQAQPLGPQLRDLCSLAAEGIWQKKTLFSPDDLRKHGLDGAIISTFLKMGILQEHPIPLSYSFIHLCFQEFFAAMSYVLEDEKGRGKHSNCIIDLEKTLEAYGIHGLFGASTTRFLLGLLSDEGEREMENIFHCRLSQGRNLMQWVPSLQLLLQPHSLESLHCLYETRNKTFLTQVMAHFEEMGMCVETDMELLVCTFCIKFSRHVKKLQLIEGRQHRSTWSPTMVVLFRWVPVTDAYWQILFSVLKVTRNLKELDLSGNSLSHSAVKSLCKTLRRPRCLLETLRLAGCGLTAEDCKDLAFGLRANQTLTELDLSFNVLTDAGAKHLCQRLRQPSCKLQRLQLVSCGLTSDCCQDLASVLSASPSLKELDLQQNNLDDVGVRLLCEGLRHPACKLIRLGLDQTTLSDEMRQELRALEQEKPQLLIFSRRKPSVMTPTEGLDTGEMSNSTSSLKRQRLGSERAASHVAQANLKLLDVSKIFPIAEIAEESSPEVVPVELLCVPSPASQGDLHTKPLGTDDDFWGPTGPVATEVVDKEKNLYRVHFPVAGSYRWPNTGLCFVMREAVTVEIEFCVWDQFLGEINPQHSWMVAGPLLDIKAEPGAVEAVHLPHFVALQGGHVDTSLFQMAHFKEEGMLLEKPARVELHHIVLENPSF
NACHT, LRR and PYD domains-containing protein 1, sequence (Q9C000 1213-1473 limits assumed): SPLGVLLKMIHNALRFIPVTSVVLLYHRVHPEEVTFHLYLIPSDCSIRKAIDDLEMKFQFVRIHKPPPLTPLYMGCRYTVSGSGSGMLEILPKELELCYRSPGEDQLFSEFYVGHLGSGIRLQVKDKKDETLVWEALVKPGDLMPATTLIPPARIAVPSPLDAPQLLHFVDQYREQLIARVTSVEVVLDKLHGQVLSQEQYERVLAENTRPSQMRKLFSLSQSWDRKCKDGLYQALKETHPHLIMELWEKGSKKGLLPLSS
G-protein coupled receptor 35, sequence (Q9HC97 whole entry): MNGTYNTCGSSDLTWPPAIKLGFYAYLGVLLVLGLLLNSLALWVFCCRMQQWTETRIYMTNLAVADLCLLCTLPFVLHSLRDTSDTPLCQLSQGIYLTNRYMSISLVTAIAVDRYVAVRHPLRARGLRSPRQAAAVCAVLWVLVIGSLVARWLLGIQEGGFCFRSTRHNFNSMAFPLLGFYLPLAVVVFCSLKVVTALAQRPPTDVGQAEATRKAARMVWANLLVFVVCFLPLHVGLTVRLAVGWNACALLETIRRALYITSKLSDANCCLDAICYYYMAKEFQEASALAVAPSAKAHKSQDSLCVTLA
Beta Lactamase, sequence (Q932Y6 whole entry): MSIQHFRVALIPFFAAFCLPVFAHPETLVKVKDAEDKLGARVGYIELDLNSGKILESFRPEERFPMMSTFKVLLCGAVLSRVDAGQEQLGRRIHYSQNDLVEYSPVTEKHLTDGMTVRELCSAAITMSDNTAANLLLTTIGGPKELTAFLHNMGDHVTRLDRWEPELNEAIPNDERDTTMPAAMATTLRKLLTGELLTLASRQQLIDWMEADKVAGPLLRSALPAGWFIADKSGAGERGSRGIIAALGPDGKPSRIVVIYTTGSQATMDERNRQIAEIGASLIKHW

Which results are given for `O=C(CSc1nc2ccccc2c(=O)n1-c1ccccc1F)Nc1ccc2c(c1)CCC2`?
IC50 (Vero [1]): 16.4 µM (active); CC50 (Vero [2]): > 40 µM (active); CC50 (Vero [3]): > 100 µM (active); CC50 (Vero [4]): > 66.6 µM (active)

Which results are given for `O=C(Nc1cccc2ncccc12)c1ccccc1Cl`?
IC50 [5]: 1.68 µM (active); IC50 [6]: 9.25 µM (active); IC50 [7]: > 100 µM (inactive); IC50 [8]: 4 µM (active)

For `Cc1ccc(C(C)C)cc1OCCCCN1CCCC1`, which EC50 [9] is on record?
The EC50 was 0.53 µM (active).

For `CC(NC(=O)/C(C#N)=C/c1ccc([N+](=O)[O-])o1)c1ccccc1` (centres undefined), which AC50 [10] is on record?
Its AC50 is > 120 µM (inactive).

And the IC50 [11]?
Its IC50 is 14.3 µM (active).

What about the IC50 (CHO) of the same compound?
The IC50 was 4.03 µM (active).

What about the IC50 (Saccharomyces cerevisiae) of the same compound?
Its IC50 is 9.51 µM (active).

And the EC50 (HEK293 [12])?
Its EC50 is > 59.6 µM (inactive).

And the IC50 (Beta Lactamase)?
Its IC50 is 8.23 µM (active).

And the EC50 [13]?
The EC50 was 6.1 µM (active).

What about the EC50 (Protein RecA) of the same compound?
Its EC50 is 35 µM (active).

What about the EC50 (HEK293 [14]) of the same compound?
Its EC50 is > 59.6 µM (inactive).

And the IC50 (Beta-galactosidase)?
The IC50 was > 66.6 µM (inactive).

And the IC50 [15]?
Its IC50 is 3.85 µM (active).

What does the source list for `COc1ccc(C(C(=O)NC2CCCCC2)N(C(=O)CCl)c2ccc(OC)c(Cl)c2)cc1` (centres undefined)?
AC50 [16]: 0.536 µM (active); AC50 [17]: 0.126 µM (active); AC50 [18]: 0.366 µM (active); AC50 [19]: 0.122 µM (active)
